Experimental data taken from patent US20260274895A1, “DE NOVO DESIGNED MEMBRANE-TRAVERSING AND ORALLY BIOAVAILABLE MACROCYCLES” (UNIVERSITY OF WASHINGTON, priority 2022, published 2026).
Where a SMILES comes first, the peptide text is derived from it. [ ]: non-standard residue; d: D form. NMeF = CN[C@@H](Cc1ccccc1)C(=O)O; NMeI = CC[C@H](C)[C@H](NC)C(=O)O; dNMeF = CN[C@H](Cc1ccccc1)C(=O)O; NMeL = CN[C@@H](CC(C)C)C(=O)O; dNMeL = CN[C@H](CC(C)C)C(=O)O; NMeV = CN[C@H](C(=O)O)C(C)C; NMeA = CN[C@@H](C)C(=O)O; Nle = CCCC[C@H](N)C(=O)O; dNMeA = CN[C@H](C)C(=O)O

Conditions: PAMPA

PAMPA_Papp_Avg (apparent permeability) [×10⁻⁶ cm/s]	Compound
6.36	CC[C@H](C)[C@H]1C(=O)N[C@H](C)C(=O)N[C@@H](CC(C)C)C(=O)N[C@@H](C(C)C)C(=O)N2CCC[C@@H]2C(=O)N(C)[C@@H](CC(C)C)C(=O)N[C@@H](C(C)C)C(=O)N2CCC[C@H]2C(=O)N(C)[C@H](CC(C)C)C(=O)N[C@@H](C(C)C)C(=O)N1C [Design D10.19, aLVp*LVP*lV*I] (cyclo(LV[dP][NMeL]VP[dNMeL]V[NMeI][dA]))
1.12	CC[C@H](C)[C@@H]1NC(=O)[C@H]2CCCN2C(=O)[C@@H]2CCCN2C(=O)[C@H](C(C)C)NC(=O)[C@@H](C(C)C)NC(=O)[C@H](Cc2ccccc2)N(C)C(=O)[C@H]2CCCN2C(=O)[C@@H](CC(C)C)N(C)C(=O)[C@@H](CC(C)C)NC1=O [Design D9.42, pIl*lp*FvVP] (cyclo(I[dL][dNMeL][dP][NMeF][dV]VP[dP]))
0.294	CCCC[C@@H]1NC(=O)[C@H](C(C)C)NC(=O)[C@H]2CCCN2C(=O)[C@@H]2CCCN2C(=O)[C@H](C)NC(=O)[C@@H](C)N(C)C(=O)[C@@H](CC(C)C)N(C)C(=O)[C@@H](C(C)C)NC(=O)[C@@H]2CCCN2C1=O [Design D9.21, APpVMPv*l*a] (cyclo(AP[dP]V[Nle]P[dV][dNMeL][dNMeA]))
1.28	CC(C)C[C@@H]1C(=O)N(C)[C@H](CC(C)C)C(=O)N[C@H](CC(C)C)C(=O)N[C@@H](C(C)C)C(=O)N2CCC[C@@H]2C(=O)N2CCC[C@H]2C(=O)N[C@H](CC(C)C)C(=O)N[C@@H](C(C)C)C(=O)N1C [Design D8.23, lV*l*llVpP] (cyclo([dL]V[dNMeL][dNMeL][dL]V[dP]P))
2.16	CC[C@H](C)[C@@H]1NC(=O)[C@@H](C(C)C)NC(=O)[C@H](CC(C)C)N(C)C(=O)[C@H]2CCCN2C(=O)[C@H]2CCCN2C(=O)[C@H](C(C)C)NC(=O)[C@@H](CC(C)C)NC(=O)[C@H]2CCCN2C1=O [Design D8.16, plVpp*LvI] (cyclo(I[dP][dL]V[dP][dP][NMeL][dV]))
0.184	CC(C)C[C@@H]1C(=O)N[C@@H](C)C(=O)N[C@H](CC(C)C)C(=O)N(C)[C@@H](C)C(=O)N2CCC[C@@H]2C(=O)N2CCC[C@@H]2C(=O)N2CCC[C@@H]2C(=O)N2CCC[C@H]2C(=O)N[C@H](C(C)C)C(=O)N(C)[C@@H](CC(C)C)C(=O)N1C [Design D10.28, l*ApppPv*L*lA] (cyclo([dV][NMeL][dNMeL]A[dL][NMeA][dP][dP][dP]P))
0.879	CC(C)C[C@@H]1C(=O)N(C)[C@@H](CC(C)C)C(=O)N2CCC[C@@H]2C(=O)N[C@H](CC(C)C)C(=O)N[C@H](C)C(=O)N2CCC[C@@H]2C(=O)N2CCC[C@H]2C(=O)N[C@@H](C)C(=O)N[C@H](Cc2ccccc2)C(=O)N[C@H](CC(C)C)C(=O)N[C@@H](C(C)C)C(=O)N1C (single isomer, unassigned) [Design D11.9.p1, V*l*LplapPAfl]
0.441	CC(C)C[C@@H]1C(=O)N(C)[C@H](C)C(=O)N(C)[C@@H](C(C)C)C(=O)N2CCC[C@@H]2C(=O)N[C@H](C)C(=O)N[C@@H](Cc2ccccc2)C(=O)N2CCC[C@@H]2C(=O)N2CCC[C@H]2C(=O)N[C@H](C(C)C)C(=O)N[C@@H](C(C)C)C(=O)N1C [Design D10.29, FpPvV*l*a*Vpa] (cyclo([dV]V[dNMeL][dNMeA][NMeV][dP][dA]F[dP]P))
2.41	CC(C)[C@@H]1NC(=O)[C@@H]2CCCN2C(=O)[C@@H]2CCCN2C(=O)[C@@H](Cc2ccccc2)NC(=O)[C@@H]2CCCN2C(=O)[C@@H](Cc2ccccc2)NC1=O [Design D6.5, PPVfPf] (cyclo(PPV[dF]P[dF]))
0.161	CC(C)C[C@@H]1C(=O)N[C@@H](C)C(=O)N[C@H](CC(C)C)C(=O)N2CCC[C@H]2C(=O)N[C@H](C)C(=O)N2CCC[C@@H]2C(=O)N2CCC[C@H]2C(=O)N[C@H](C(C)C)C(=O)N[C@H](CC(C)C)C(=O)N(C)[C@H](CC(C)C)C(=O)N1C [Design D10.43, apPvl*l*LAlP] (cyclo([dV][dL][dNMeL][dNMeL]A[dL]P[dA][dP]P))
1.28	CC(C)C[C@@H]1NC(=O)[C@@H](CC(C)C)NC(=O)[C@@H](CC(C)C)N(C)C(=O)[C@@H](CC(C)C)N(C)C(=O)[C@H](C(C)C)NC(=O)[C@@H](C)N(C)C(=O)[C@@H]2CCCN2C(=O)[C@@H]2CCCN2C(=O)[C@@H](C)N(C)C1=O [Design D9.19, P*aV*l*llL*aP] (cyclo(L[dNMeA]PP[dNMeA]V[dNMeL][dNMeL][dL]))
3.51	CC(C)C[C@H]1NC(=O)[C@@H]2CCCN2C(=O)[C@@H](C(C)C)NC(=O)[C@@H](C)N(C)C(=O)[C@@H](C(C)C)NC(=O)[C@@H]2CCCN2C(=O)[C@@H](Cc2ccccc2)NC(=O)[C@H](CC(C)C)N(C)C(=O)[C@@H](C(C)C)NC1=O [Design D9.9, Pv*avPlv*Lf] (cyclo([NMeL][dF]P[dV][dNMeA][dV]P[dL][dV]))
0.71	CC(C)C[C@H]1NC(=O)[C@@H](C(C)C)NC(=O)[C@H](CC(C)C)N(C)C(=O)[C@@H](Cc2ccccc2)NC(=O)[C@H](CC(C)C)N(C)C(=O)[C@H]2CCCN2C(=O)[C@@H]2CCCN2C(=O)[C@H]2CCCN2C(=O)[C@@H](C(C)C)NC(=O)[C@H]2CCCN2C1=O [Design D10.42, vlpvpPp*Lf*L] (cyclo([dP][NMeL][dF][NMeL][dV][dL][dP][dV][dP]P))
1.99	CC(C)C[C@H]1NC(=O)[C@@H]2CCCN2C(=O)[C@@H]2CCCN2C(=O)[C@@H](C)NC(=O)[C@@H](Cc2ccccc2)NC(=O)[C@H]2CCCN2C1=O [Design D6.3, pfaPpl] (cyclo(PP[dL][dP][dF][dA]))
4.51	CC[C@@H](C)[C@H]1NC(=O)[C@@H](Cc2ccccc2)NC(=O)[C@@H](CC(C)C)NC(=O)[C@@H]2CCCN2C(=O)[C@H]2CCCN2C(=O)[C@H](CC(C)C)NC(=O)[C@H](CC(C)C)NC(=O)[C@@H](CC(C)C)N(C)C(=O)[C@H](C)N(C)C(=O)[C@H]2CCCN2C1=O [Design D10.34, fip*A*lLLpPl] (cyclo([dL][dF][dI][dP][NMeA][dNMeL]LL[dP]P))
12.2	CC[C@@H](C)[C@H]1NC(=O)[C@@H](Cc2ccccc2)N(C)C(=O)[C@@H]2CCCN2C(=O)[C@@H]([C@H](C)CC)NC(=O)[C@@H](Cc2ccccc2)N(C)C(=O)[C@@H]2CCCN2C1=O [Design D6.2, iP*fiP*f] (cyclo(P[dNMeF][dI]P[dNMeF][dI]))
2.93	CC[C@H](C)[C@@H]1NC(=O)[C@H]2CCCN2C(=O)[C@@H]2CCCN2C(=O)[C@H](CC(C)C)NC(=O)[C@@H](C(C)C)NC(=O)[C@@H](CC(C)C)N(C)C(=O)[C@@H]2CCCN2C1=O [Design D7.1, P*lvLPpI] (cyclo(IP[dNMeL][dV]LP[dP]))
0.826	CC[C@H](C)[C@@H]1NC(=O)[C@@H](CC(C)C)N(C)C(=O)[C@H](CC(C)C)N(C)C(=O)[C@@H](C)N(C)C(=O)[C@@H](Cc2ccccc2)NC(=O)[C@H](C(C)C)NC(=O)[C@@H](C)NC(=O)[C@@H]2CCCN2C(=O)[C@H]2CCCN2C1=O [Design D9.10, Vf*a*L*lIpPa] (cyclo([dA]V[dF][dNMeA][NMeL][dNMeL]I[dP]P))
